What was measured:
[1] = system: Aeromonas hydrophila subsp. hydrophila ATCC 7966; assay: Inhibition of Aeromonas hydrophila ATCC 7966 CphA expressed in Escherichia coli LMG194 at 50 uM using CPC-1 as substrate preincubated for 10 mins followed by substrate addition by fluorescence assay relative to control
[2] = Inhibition of Aeromonas hydrophila ATCC 7966 CphA expressed in Escherichia coli LMG194 using CPC-1 as substrate preincubated for 10 mins followed by substrate addition by fluorescence assay; set-up: species or system Aeromonas hydrophila subsp. hydrophila ATCC 7966
[3] = Inhibition of Aeromonas hydrophila ATCC 7966 NDM1 expressed in Escherichia coli LMG194 using CPC-1 as substrate preincubated for 10 mins followed by substrate addition by fluorescence assay; set-up: species or system Aeromonas hydrophila subsp. hydrophila ATCC 7966
[4] = Inhibition of Aeromonas hydrophila ATCC 7966 IMP1 expressed in Escherichia coli LMG194 using CPC-1 as substrate preincubated for 10 mins followed by substrate addition by fluorescence assay; set-up: species or system Aeromonas hydrophila subsp. hydrophila ATCC 7966
[5] = Inhibition of Aeromonas hydrophila ATCC 7966 NDM1 expressed in Escherichia coli LMG194 using FC3 as substrate preincubated for 10 mins followed by substrate addition by fluorescence assay; set-up: species or system Aeromonas hydrophila subsp. hydrophila ATCC 7966
[6] = Inhibition of Aeromonas hydrophila ATCC 7966 IMP1 expressed in Escherichia coli LMG194 using FC3 as substrate preincubated for 10 mins followed by substrate addition by fluorescence assay; set-up: species or system Aeromonas hydrophila subsp. hydrophila ATCC 7966
[7] = Inhibition of Aeromonas hydrophila ATCC 7966 beta-lactamase L1 expressed in Escherichia coli LMG194 using CPC-1 as substrate preincubated for 10 mins followed by substrate addition by fluorescence assay; set-up: species or system Aeromonas hydrophila subsp. hydrophila ATCC 7966
[8] = Inhibition of Aeromonas hydrophila ATCC 7966 beta-lactamase L1 expressed in Escherichia coli LMG194 using FC3 as substrate preincubated for 10 mins followed by substrate addition by fluorescence assay; set-up: species or system Aeromonas hydrophila subsp. hydrophila ATCC 7966
[9] = Inhibition of Aeromonas hydrophila ATCC 7966 CphA expressed in Escherichia coli LMG194 using imipenem as substrate; set-up: species or system Aeromonas hydrophila subsp. hydrophila ATCC 7966

Row | SMILES | inhibition [1] | IC50 [2] | IC50 [3] | IC50 [4] | IC50 [5] | IC50 [6] | IC50 [7] | IC50 [8] | IC50 [9]
1 | O=c1c2ccccc2[se]n1-c1ccccc1 | < 50% | – | – | – | – | – | – | – | –
2 | OCC(S)CS (stereo not given) [DIMERCAPROL] | > 80% | 7.8 µM | 1.5 µM | 7.1 µM | 1 µM | 6.2 µM | 5 µM | 2.6 µM | –
3 | O=C(O)c1cccc(C(=O)O)n1 [DIPICOLINIC ACID] | – | 61.5 µM | 8.8 µM | 23.6 µM | 6.2 µM | 29.4 µM | – | – | 88.4 µM

Source: ChEMBL document CHEMBL4308890, “A carbapenem-based fluorescence assay for the screening of metallo-β-lactamase inhibitors” (Bioorg Med Chem Lett, 2019)
